From BindingDB's records for doi:10.1016/j.bmc.2013.08.025 (Novartis Institutes For Biomedical Research, 2013) come the findings set out here.

A short description of assay [1]: Antagonist activity at CRTh2 receptor in human isolated eosinophil assessed as inhibition of delta12-PGD2-induced shape change after 5 mins by flow cytometry. Background: A flow cytometer gives signals particle by particle.
A short description of assay [2]: Antagonist activity at CRTh2 receptor in human whole blood assessed as inhibition of PGD2-induced eosinophil shape change after 5 mins by flow cytometry.
The nature of assay [3]: Antagonist activity at CRTh2 receptor in human isolated eosinophil assessed as inhibition of eotaxin-induced shape change after 5 mins by flow cytometry.
Assay [4] is described as follows: Antagonist activity at CRTh2 receptor in human isolated eosinophil assessed as inhibition of 11-Dehydro-TXB2-induced shape change after 5 mins by flow cytometry.
The target in assay [5] is T1, Prostaglandin D2 receptor 2 (Homo sapiens, UniProt Q9Y5Y4).
T1 sequence (Q9Y5Y4 whole entry): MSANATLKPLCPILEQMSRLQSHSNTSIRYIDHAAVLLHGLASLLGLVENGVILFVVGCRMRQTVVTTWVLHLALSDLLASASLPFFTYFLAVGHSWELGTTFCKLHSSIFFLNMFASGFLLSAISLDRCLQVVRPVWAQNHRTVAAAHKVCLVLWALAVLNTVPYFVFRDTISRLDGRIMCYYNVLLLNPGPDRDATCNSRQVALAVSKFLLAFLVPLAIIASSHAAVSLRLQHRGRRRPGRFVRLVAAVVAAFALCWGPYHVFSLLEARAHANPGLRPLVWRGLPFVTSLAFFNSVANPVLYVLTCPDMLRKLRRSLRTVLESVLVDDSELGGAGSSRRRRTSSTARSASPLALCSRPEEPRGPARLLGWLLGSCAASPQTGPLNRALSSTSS
Briefly: Antagonist activity at CRTh2 receptor in human isolated eosinophil assessed as inhibition of DK-PGD2-induced shape change after 5 mins by flow cytometry.

The nature of assay [6]: Antagonist activity at CRTh2 receptor in human isolated eosinophil assessed as inhibition of DK-PGD2-induced shape change after 5 mins by flow cytometry.

What is called IC50 is the concentration at which inhibition is half-maximal. For the compound `Cc1c(CC(=O)O)c2cccnc2n1Cc1ccc(S(C)(=O)=O)cc1`, the IC50 in assay [1] is 4 nM; in assay [2] it was 102 nM; in assay [3], above 10000 nM; in assay [4] it was 4 nM.

With `Cc1c(CC(=O)O)c2cccnc2n1Cc1ccc([N+](=O)[O-])cc1`, the half-maximal inhibitory concentration (IC50) in assay [5] was 24 nM. Consider `Cc1c(CC(=O)O)c2cccnc2n1Cc1ccc([S+](C)[O-])cc1` (configuration not stated), for which the IC50 in assay [6] was found to be 51 nM. Regarding `Cc1c(CC(=O)O)c2cccnc2n1Cc1ccc(Cl)cc1`, the IC50 in assay [6] came out at 23 nM.
